According to patent publication US4146710A, “Solid cephalosporin salt” (Takeda Chemical Industries, Ltd., priority 1976, dated 1979):
In brackets after ≈: the same amount, converted by molar mass. Counter-ions that a name gives are not always drawn. Like-named read-outs stand apart in the source and are kept apart here.

Experiments:
[1] = Storage stability in sealed vial at 50° C. for 4 weeks, % residue; assay type: physicochemical; settings: 40320 min
Experimental: One sample each of the following compounds was stored in a sealed vial at 50° C. for 4 weeks.
The sodium salt, zwitter ion, and monohydrochloride of 7β-[2-(2-imino-4-thiazoline-4-yl)acetamido]-3-[1-[2-(N,N-dimethylamino)ethyl]-1H-tetrazol-5-yl]thiomethyl-3-cephem-4-carboxylic acid, as well as the lyophilized powders of said acid dihydrochloride (amorphous powders, Example 4-(2)), the crystals of said acid dihydrochloride (Example 1-(3)) and the non-crystalline powders obtained by drying said dihydrochloride crystals (Example 1-(4)) as obtained in accordance with this invention.
The percent residue figures are as follows.

[2] = system: Bacillus subtilis ATCC 6633; test: Bioassay by the cylinder method; assay type: cell-based
Experimental: The bioassay by the cylinder method was carried out using 7β-[2-(2-imino-4-thiazolin-4-yl)acetamido]-3-[1-[2-(N,N-dimethylamino)ethyl]-1H-tetrazol-5-yl]thiomethyl-3-cephem-4-carboxylic acid .2H Cl salt as the standard product against Bacillus subtilis ATCC 6633 as the assay microorganism.
The potency of the anhydrous zwitter ion compound was 1000 mcg/ml. The calculated potency of a sample containing 2 moles of HCl per mole of the zwitter ion compound and none of non-bonding hydrochloric acid, water, residual solvent or other impurity is 878 mcg/ml.

[3] = Stability in storage / shelf-life (statement); assay type: physicochemical
[4] = Acute toxicity (mouse, intraperitoneal); settings: in vivo, ip, 1:1 (by mole) mixture of compound (I) and sodium carbonate, anhydrate basis, read-out: CD50 (the source's name)
Text: (§1) The antibacterial potency (in terms of MIC) and toxicity of the contemplated compound (I) on anhydrate basis
(2) Acute toxicity (mouse, intraperitoneal)
The acute toxicity data relates to a 1:1 (by mole) mixture of contemplated compound (I) and sodium carbonate.

Escherichia coli O-111 = test: Antibacterial spectrum (agar dilution), MIC; assay type: cell-based; settings: O111, on anhydrate basis, E. coli O-111
Text: as §1
(§2) (1) Antibacterial spectrum (agar dilution)

Escherichia coli T-7 = test: Antibacterial spectrum (agar dilution), MIC; assay type: cell-based; settings: T7, on anhydrate basis, E. coli T-7
Text: as §1, §2

Klebsiella pneumoniae DT = test: Antibacterial spectrum (agar dilution), MIC; assay type: cell-based; settings: on anhydrate basis, K. pneumoniae DT
Text: as §1, §2

[5] = system: Proteus vulgaris IFO 3988; test: Antibacterial spectrum (agar dilution), MIC; assay type: cell-based; settings: IFO3988, on anhydrate basis, P. vulgaris IFO 3988
Text: as §1, §2

[6] = system: Escherichia coli NIHJ JC-2; test: Antibacterial spectrum (agar dilution), MIC; assay type: cell-based; settings: NIHJJC2, on anhydrate basis, E. coli NIHJ JC-2
Text: as §1, §2

[7] = system: Staphylococcus aureus 1840; test: Antibacterial spectrum (agar dilution), MIC; assay type: cell-based; settings: on anhydrate basis, S. aureus 1840
Text: as §1, §2

[8] = system: Staphylococcus aureus FDA 209 P; test: Antibacterial spectrum (agar dilution), MIC; assay type: cell-based; settings: FDA209, on anhydrate basis, S. aureus FDA 209 P
Text: as §1, §2

[9] = system: Proteus morganii IFO 3848; test: Antibacterial spectrum (agar dilution), MIC; assay type: cell-based; settings: Morganella morganii, IFO3848, on anhydrate basis, P. morganii IFO 3848
Text: as §1, §2

[10] = West German Patent Application Laid Open No. 2461478; cited from earlier work
[11] = Water solubility (statement); assay type: physicochemical

## CN(C)CCn1nnnc1SCC1=C(C(=O)O)N2C(=O)[C@@H](NC(=O)Cc3csc(N)n3)[C@H]2SC1 [Example 4-(2), 7β-[2-(2-imino-4-thiazolin-4-yl)acetamido]-3-[1-[2-(N,N-dimethylamino)ethyl]-1H-tetrazol-5-yl]thiomethyl-3-cephem-4-carboxylic acid]
[1]
  % Residue: 86%

## CN(C)CCn1nnnc1SCC1=C(C(=O)O)N2C(=O)[C@@H](NC(=O)Cc3csc(N)n3)[C@H]2SC1 [Sodium salt (lyophilizate), 7β-[2-(2-imino-4-thiazoline-4-yl)acetamido]-3-[1-[2-(N,N-dimethylamino)ethyl]-1H-tetrazol-5-yl]thiomethyl-3-cephem-4-carboxylic acid, reference compound]
[1]
  % Residue: 76%

## CN(C)CCn1nnnc1SCC1=C(C(=O)O)N2C(=O)[C@@H](NC(=O)Cc3csc(=N)[nH]3)[C@H]2SC1 [Example 7-(3), 5β-[2-(2-imino-4-thiazolin-4-yl)acetamido]-3-[1-[2-(N,N-dimethylamino)ethyl]-1H-tetrazol-5-yl]thiomethyl-3-cephem-4-carboxylic acid]
[2]
  Bioassay (potency): 865 µg/mL

## CN(C)CCn1nnnc1SCC1=C(C(=O)O)N2C(=O)[C@@H](NC(=O)Cc3csc(N)n3)[C@H]2SC1 [Monohydrochloride (lyophilizate), 7β-[2-(2-imino-4-thiazoline-4-yl)acetamido]-3-[1-[2-(N,N-dimethylamino)ethyl]-1H-tetrazol-5-yl]thiomethyl-3-cephem-4-carboxylic acid, reference compound]
[1]
  % Residue: 73%

## CN(C)CCn1nnnc1SCC1=C(C(=O)O)N2C(=O)[C@@H](NC(=O)Cc3csc(N)n3)[C@H]2SC1 [Example 1-(4), 7β-[2-(2-imino-4-thiazolin-4-yl)acetamido]-3-[1-[2-(N,N-dimethylamino)ethyl]-1H-tetrazol-5-yl]thiomethyl-3-cephem-4-carboxylic acid]
[1]
  % Residue: 98%

## CN(C)CCn1nnnc1SCC1=C(C(=O)O)N2C(=O)[C@@H](NC(=O)Cc3csc(N)n3)[C@H]2SC1 [Example 1-(3), 7β-[2-(2-imino-4-thiazolin-4-yl)acetamido]-3-[1-[2-(N,N-dimethylamino)ethyl]-1H-tetrazol-5-yl]thiomethyl-3-cephem-4-carboxylic acid]
[1]
  % Residue: 99%

## CN(C)CCn1nnnc1SCC1=C(C(=O)O)N2C(=O)[C@@H](NC(=O)Cc3csc(N)n3)[C@H]2SC1 [compound (I)]
[3]
  stability in storage: highly stable in storage
[4]
  LD50: ≥ 20000 mg/kg
Escherichia coli O-111
  MIC: 0.05 µg/mL (≈ 0.0951 µM)
Escherichia coli T-7
  MIC: 1.56 µg/mL (≈ 2.97 µM)
Klebsiella pneumoniae DT
  MIC: 0.1 µg/mL (≈ 0.19 µM)
[5]
  MIC: 1.56 µg/mL (≈ 2.97 µM)
[6]
  MIC: 0.2 µg/mL (≈ 0.38 µM)
[7]
  MIC: 0.78 µg/mL (≈ 1.48 µM)
[8]
  MIC: 0.39 µg/mL (≈ 0.742 µM)
[9]
  MIC: 0.39 µg/mL (≈ 0.742 µM)

## CN(C)CCn1nnnc1SCC1=C(C(=O)O)N2C(=O)[C@@H](NC(=O)Cc3csc(N)n3)[C@H]2SC1 [compound (II), 7β-[2-(2-imino-4-thiazolin-4-yl)acetamido]-3-[1-[2-(N,N-dimethylamino)ethyl]-1H-tetrazol-5-yl]thiomethyl-3-cephem-4-carboxylic acid, reference compound]
[3]; free acid form (zwitter ion) or salt with a base
  stability on long shelf-life: unstable in the free acid form (zwitter ion) or its salt with a base
[10]
  antibiotic activity: excellent antibiotic activity
[11]
  water solubility: high water solubility
[1]; listed as Zwitter ion(lyophilizate)
  % Residue: 54%
[2]; listed as anhydrous zwitter ion compound
  Bioassay (potency): 1000 µg/mL
